Patent publication US6767903B1, “New7α, 17α-bis-alkylated testosterone derivatives and their use in long-term therapy of androgen-dependent diseases” (Schering AG, priority 1998, dated 2004)
Where two headings read alike, the source gives them in different places.

Tested on: human prostate cancer cell line LNCaP
Test: Antiproliferation test with the human prostate cancer cell line (LNCaP)
Format: cell-based
Conditions: LNCaP cells; for IC50: growth stimulated by 0.1 nM R1881, 7 days, MTT readout, read-out: Antiandrogeneity IC50 in the presence of 0.1 nM of R1881; for Androgeneity at 1 μM: test compound at 1 μM, growth stimulation by 0.1 nM of R1881 was set = 100%
Text: Antiproliferation Test with the Human Prostate Cancer Cell Line (LNCaP)
The human prostate cancer cell line LNCaP [American Type Culture Collection (ATCC)=Accession No.: CRL 1740; Horoszewicz et al., Cancer Research, 43 pp. 1809-18, 1983] was isolated from the lymph node metastasis of a prostate cancer patient. It expresses the androgen receptor and can be stimulated in growth by androgens. The androgen-mediated growth stimulation can be blocked by simultaneous administration of antiandrogens. The antiandrogenic active strength (IC50) of test compounds can be determined by dose-action correlations.
The cells are cultivated in RPMI 1640 medium with penicillin (10,000 units/l), streptomycin (100 mg/l), glutamine ([…]), 10% fetal calf serum and 0.1 nM of the synthetic androgen R1881 (Metribolone, Roussel).
Day 1: Sowing of the cells in a density of 5,000-6,000/100 μl/hole in 96-hole plates. Adding test compound (100 μl/hole doubly concentrated) to the culture medium with 0.2 nM of R1881 (yields 0.1 nM final concentration). Incubation of the cells for 72 or 96 hours at 37° C., 5% CO2, 90% relative atmospheric humidity. In the culture medium, the fetal calf serum is replaced by 5% activated carbon-treated (steroid-free) serum.
Day 3 or 4: Medium change: In each case in 50% of the medium, inclusive test compounds are replaced by fresh medium. Incubation of the cells for 96 or 72 hours at 37° C., 5% CO2, 90% relative atmospheric humity.
Day 7: Adding 25 μl of MTT solution per hole {MTT=(3[4,5-dimethylthiazol-2-yl]-2,5-diphenaltetrazolium bromide (thiazolyl blue}. Incubation is for 3 hours at 37° C., 5% CO2, 90% relative atmospheric humidity. After the removal of the supernatant, addition of 100 μl of DMSO per hole. Measurement of the optical density at […].
The antiandrogens OH-flutamide and casodex that are found in clinical practice were tested, as well as the compound EM-101 (N-butyl, N-methyl-11-(17′β-hydroxy-4′-androsten-3′-on-7′α-yl)undecanamide of WO 91/00732.

Row | SMILES | IC50 (Homo sapiens, 168 h) | Androgeneity at 1 μM | IC50
1 | CC(O)(CS(=O)(=O)c1ccc(F)cc1)C(=O)Nc1ccc(C#N)c(C(F)(F)F)c1 (stereo not shown) [Casodex] | 440 nM | 7% | –
2 | CCCCN(C)C(=O)CCCCCCCCCC[C@@H]1CC2=CC(=O)CC[C@]2(C)[C@H]2CC[C@]3(C)[C@@H](O)CC[C@H]3[C@H]12 [EM-101, N-butyl, N-methyl-11-(17′β-hydroxy-4′-androsten-3′-on-7′α-yl)undecanamide] | – | 0% | 4440 nM
3 | CC12CCC(=O)C=C1CC(CCCCCCCCCC[S+]([O-])c1ccccc1)C1C2CCC2(C)C1CCC2(O)C(F)(F)C(F)(F)F (stereo not drawn) [Example 20, 17β-Hydroxy-17α-(1,1,2,2,2-pentafluoroethyl)-7α-[10-(phenylsulfinyl)decyl]androst-4-en-3-one] | – | 0% | 200 nM
4 | C[C@]12CCC(=O)C=C1C[C@@H](CCCCCCCCCO)[C@@H]1[C@@H]2CC[C@@]2(C)[C@H]1CC[C@]2(C)O [Example 53, 17β-Hydroxy-7α-(9-hydroxynonyl)-17α-methylandrost-4-en-3-one] | 40 nM | 0% | –
5 | CC(C)(O)C(=O)Nc1ccc([N+](=O)[O-])c(C(F)(F)F)c1 [OH-flutamide] | – | 144% | > 10000 nM
